Legend:
Type in all cases: physicochemical
[1] = Wear life (T 1/2) of polymer plate in xenon fade meter, JIS L0843 and JIS B7754; conditions: time until color density decreases to one-half the initial value
Description: (§1) 0.04 Parts of fulgimide compounds shown in Table 3, 70 parts of tetraethyleneglycol dimethacrylate, 15 parts of triethyleneglycol dimethacrylate, 10 parts of glycidyl methacrylate, 5 parts of 2-hydroethylmethacrylate and 1 part of perbutyl ND as a polymerization catalyst, were sufficiently mixed together until they were completely dissolved. The mixture solution was poured into a mold constituted by a glass plate and a gasket of an ethylene/vinyl acetate copolymer, and its temperature was elevated in an air oven from 35° C. to 90° C. over a period of 20 hours to effect the polymerization. After the polymerization, the polymer was taken out from the glass mold.
(§2) The obtained polymer plate was irradiated with xenon light by using a Xenon Long-Life Fade Meter FAL-25AX-HC (output: 2.5 KW, source of light: xenon long-life arc lamp) manufactured by Suga Shikenki Co., in order to measure a maximum absorption wavelength in a state of developing color. The initial color tone was observed by eyes, and YI of the samples was measured by using a color-difference meter (Model SM-4) manufactured by Suga Shikenki Co. The wear life (T 1/2) was also measured in compliance with JIS L0843 and JIS B7754. T 1/2 is defined to be the time until the color density decreases down to one-half the initial value when the polymer plate is irradiated with light by using the fade meter.
(§3) For the purpose of comparison, the fulgimide compounds represented by the following formulas (A) to (I) were also used to prepare polymer plates to measure their properties in the same procedure as described above. [drawing 113]

[2] = Initial color of polymer plate (visual observation, YI by color-difference meter); conditions: for Initial color, visually observed: before irradiation; for Initial color, YI: color-difference meter SM-4
Description: as §1, §2, §3

[3] = Developed color of polymer plate under xenon light (color density, maximum absorption wavelength); conditions: for Color density: 0.04 parts in polymer plate; for λ max: state of developing color, polymer plate
Description: as §1, §2, §3

| Compound | T1/2 [1] | Initial color, visually observed [2] | Initial color, YI [2] | Color density [3] | λ max [3] |
| --- | --- | --- | --- | --- | --- |
| CCCC1=C2C(=O)N(C(Cl)(Cl)Cl)C(=O)C2C2(c3oc4c(c31)CCCC4)C1CCC2CC1 (stereo not drawn) [Compound 24] | 140 h | colorless | 2.45 | 0.94 | 576 nm |
| CC(C)C1=C2C(=O)N(S(C)(=O)=O)C(=O)C2C2(c3c1ccn3C)C1CC3CC2CC(Cl)(C3)C1 (stereo not drawn) [Compound 6, 5'-Chloro-6,7-dihydro-N-methyl-N'-methylsulfonyl-4-isopropylspiroindoledicarboxyimide-7,2'-tricyclo[3.3.1.1^3,7]decane] | 110 h | pale yellow | 4.85 | 0.95 | 601 nm |
| CC1=C2C(=O)N(C(=O)c3cccc(C#N)c3)C(=O)C2C2(c3c1c1c(n3C)CCCC1)C1CC3CC(F)(C1)CC2(F)C3 (stereo not drawn) [Compound 11] | 100 h | colorless | 2.35 | 0.88 | 630 nm |
| CC12CCCC(CCC1)C21c2sc([N+](=O)[O-])cc2C(C2CC2)=C2C(=O)N(C(=O)c3c(F)c(F)c(F)c(F)c3F)C(=O)C21 (stereo not drawn) [Compound 12] | 140 h | colorless | 2.25 | 1.02 | 593 nm |
| CCCCC12CCC(CC1)C21c2sc(C)c(CC)c2C(C2CC2)=C2C(=O)N(C(=O)c3cccc(C(F)(F)F)c3)C(=O)C21 (stereo not drawn) [Compound 17] | 140 h | colorless | 3.10 | 1.10 | 610 nm |
| CC1=C2C(=O)N(S(=O)(=O)c3cc(Cl)cc(Cl)c3)C(=O)C2C2(c3c1c1c(n3-c3ccccc3)CCCC1)C1CCC2CC1 (stereo not drawn) [Compound 25] | 100 h | colorless | 3.26 | 0.71 | 619 nm |
| CC1=C2C(=O)N(C#N)C(=O)C2C2(c3sccc31)C1CC3CC(C1)CC2C3 (stereo not drawn) [Compound 28] | 270 h | colorless | 2.06 | 0.56 | 604 nm |
| CC1=C2C(=O)N(C#N)C(=O)C2C2(c3oc(-c4ccccc4)cc31)C1CC3CC(C1)CC2C3 (stereo not drawn) [Compound 5] | 260 h | colorless | 3.96 | 1.12 | 603 nm |
| COc1ccc(-c2cc3c(s2)C2(C4CC5CC(C4)CC2C5)C2C(=O)N(CC#N)C(=O)C2=C3C)cc1 (stereo not drawn) [E, reference compound] | 90 h | yellow | 18.21 | 0.90 | 580 nm |
| CCC1=C2C(=O)N(S(=O)(=O)O)C(=O)C2C2(c3c(OC)cc(OC)cc31)C1CC3CC(C1)CC2C3 (stereo not drawn) [Compound 27] | 100 h | pale yellow | 4.68 | 0.68 | 568 nm |
| CCC1=C2C(=O)N(C(=O)C(Cl)(Cl)Cl)C(=O)C2C2(c3sc4cc(OC)ccc4c31)C1CC3CC(Cl)(C1)CC2(Cl)C3 (stereo not drawn) [Compound 7, 3',5'-Dichloro-3,4-dihydro-1-ethyl-7-methoxy-N-trichloromethylcarbonylspirodibenzo[5,6-b:d]thiophenedicarboxyimide-4,2'-tricyclo[3.3.1.1^3,7]decane] | 100 h | colorless | 2.15 | 0.85 | 550 nm |
| CCN1C(=O)C2=C(C)c3cc(-c4ccc(OC)cc4)n(-c4ccccc4)c3C3(C4CC5CC(C4)CC3C5)C2C1=O (stereo not drawn) [F, reference compound] | 80 h | yellow | 19.23 | 0.75 | 600 nm |
| CC(=O)N1C(=O)C2=C(C3CC3)c3ccsc3C3(C4CC5CC(C4)CC3C5)C2C1=O (stereo not drawn) [Compound 2, N-Acetyl-4-cyclopropyl-6,7-dihydrospirobenzothiophenedicarboxyimide-7,2'-tricyclo[3.3.1.1^3,7]decane] | 140 h | colorless | 2.01 | 1.20 | 560 nm |
| CC(=O)N1C(=O)C2=C(C)c3c4c(n(-c5ccccc5)c3C3(C5CCCC3CCC5)C2C1=O)CCCC4 (stereo not drawn) [Compound 16] | 100 h | colorless | 3.56 | 1.05 | 625 nm |
| CC1=C2C(=O)N(C(=O)c3ccccc3)C(=O)C2C2(c3occc31)C1CC3CC(C1)CC2C3 (stereo not drawn) [Compound 33] | 100 h | colorless | 2.16 | 0.58 | 550 nm |

More lines, now with the values ahead:

| T1/2 [1] | Initial color, visually observed [2] | Initial color, YI [2] | Color density [3] | λ max [3] | Compound |
| --- | --- | --- | --- | --- | --- |
| 95 h | yellow | 10.65 | 0.75 | 550 nm | CC1=C2C(=O)N(CC#N)C(=O)C2C2(c3oc(-c4ccccc4)cc31)C1CC3CC(C1)CC2C3 (stereo not drawn) [B, reference compound] |
| 100 h | pale yellow | 4.85 | 0.95 | 548 nm | CCOC12CCC(CC1)C21c2sc3ccccc3c2C(CC)=C2C(=O)N(S(=O)(=O)CC)C(=O)C21 (stereo not drawn) [Compound 20] |
| 140 h | colorless | 2.15 | 1.43 | 562 nm | CC(=O)N1C(=O)C2=C(C3CC3)c3cc(C)sc3C3(C4CC5CC(C4)CC3C5)C2C1=O (stereo not drawn) [Compound 4, N-Acetyl-4-cyclopropyl-6,7-dihydro-2-methylspirobenzothiophenedicarboxyimide-7,2'-tricyclo[3.3.1.1^3,7]decane] |
| 400 h | colorless | 1.85 | 0.65 | 615 nm | N#CN1C(=O)C2=C(C3CC3)c3ccsc3C3(C4CC5CC(C4)CC3C5)C2C1=O (stereo not drawn) [Compound 1, N-Cyano-4-cyclopropyl-6,7-dihydrospirobenzothiophenedicarboxyimide-7,2'-tricyclo[3.3.1.1^3,7]decane] |
| 250 h | colorless | 2.95 | 1.11 | 613 nm | N#CN1C(=O)C2=C(c3ccoc3)c3ccoc3C3(C4CCC3CC4)C2C1=O (stereo not drawn) [Compound 18] |
| 110 h | colorless | 3.94 | 0.98 | 541 nm | COc1ccc(C2=C3C(=O)N(C(=O)c4ccccc4)C(=O)C3C3(c4oc5ccccc5c42)C2CC4CC3CC(C)(C4)C2)cc1 (stereo not drawn) [Compound 8, N-Benzoyl-3,4-dihydro-5'-methyl-1-(p-methoxyphenyl)spirobenzo[5,6-b:d]furandicarboxyimide-4,2-tricyclo[3.3.1.1^3,7]decane] |
| 110 h | colorless | 2.95 | 0.85 | 520 nm | CCOC(=O)N1C(=O)C2=C(C)c3c(sc4ccccc34)C3(C4CCCC3(OC)CCC4)C2C1=O (stereo not drawn) [Compound 15] |
| 85 h | yellow | 19.56 | 0.88 | 610 nm | CCN1C(=O)C2=C(C)c3cc(-c4ccc(OC)cc4)n(C)c3C3(C4CC5CC(C4)CC3C5)C2C1=O (stereo not drawn) [G, reference compound] |
| 95 h | yellow | 17.56 | 0.77 | 560 nm | COc1ccc(-c2cc3c(o2)C2(C4CC5CC(C4)CC2C5)C2C(=O)N(CC#N)C(=O)C2=C3C)cc1 (stereo not drawn) [C, reference compound] |
| 385 h | colorless | 2.01 | 0.98 | 600 nm | N#CN1C(=O)C2=C(C3CC3)c3ccoc3C3(C4CC5CC(C4)CC3C5)C2C1=O (stereo not drawn) [Compound 29] |
| 135 h | colorless | 3.84 | 0.90 | 570 nm | O=C1C2=C(C3CC3)c3ccsc3C3(C4CC5CC(C4)CC3C5)C2C(=O)N1C(=O)c1ccccc1 (stereo not drawn) [Compound 3, N-Benzoyl-4-cyclopropyl-6,7-dihydrospirobenzothiophenedicarboxyimide-7,2'-tricyclo[3.3.1.1^3,7]decane] |
| 265 h | colorless | 2.00 | 0.65 | 580 nm | CC1=C2C(=O)N(C#N)C(=O)C2C2(c3occc31)C1CC3CC(C1)CC2C3 (stereo not drawn) [Compound 31] |

— patent US5631382A, “Fulgimide compound” (Tokuyama Corporation, priority 1994, dated 1997)
